Source: the supplement of paper PMC13380429

Columns and labels:
Details in all cases: 72 h
Vero E6 [1] = test: relative viability EC50 (midpoint between 100% and the lowest measured viability); higher = less toxic
Caco-2 [2] = test: as above
HepG2 [3] = test: as above
U2OS [4] = test: as above
Calu-3 [5] = test: as above
Vero E6 [6] = test: drug sensitivity score (DSS) for viability; higher = more toxic; extreme values may be limits of the assay
Caco-2 [7] = test: as above
HepG2 [8] = test: as above
U2OS [9] = test: as above
Calu-3 [10] = test: as above
Vero E6 [11] = test: cell viability relative to DMSO; higher = less toxic
Caco-2 [12] = test: as above
HepG2 [13] = test: as above
U2OS [14] = test: as above
Calu-3 [15] = test: as above

Compound | relative viability EC50 (Vero E6 [1]) [µM] | relative viability EC50 (Caco-2 [2]) [µM] | relative viability EC50 (HepG2 [3]) [µM] | relative viability EC50 (U2OS [4]) [µM] | relative viability EC50 (Calu-3 [5]) [µM] | drug sensitivity score (Vero E6 [6]) | drug sensitivity score (Caco-2 [7]) | drug sensitivity score (HepG2 [8]) | drug sensitivity score (U2OS [9]) | drug sensitivity score (Calu-3 [10]) | cell viability (Vero E6 [11]; 1 nM) [%] | cell viability (Vero E6 [11]; 10 nM) [%] | cell viability (Vero E6 [11]; 100 nM) [%] | cell viability (Vero E6 [11]; 1000 nM) [%] | cell viability (Vero E6 [11]; 10000 nM) [%] | cell viability (Caco-2 [12]; 1 nM) [%] | cell viability (Caco-2 [12]; 10 nM) [%] | cell viability (Caco-2 [12]; 100 nM) [%] | cell viability (Caco-2 [12]; 1000 nM) [%] | cell viability (Caco-2 [12]; 10000 nM) [%] | cell viability (HepG2 [13]; 1 nM) [%] | cell viability (HepG2 [13]; 10 nM) [%] | cell viability (HepG2 [13]; 100 nM) [%] | cell viability (HepG2 [13]; 1000 nM) [%] | cell viability (HepG2 [13]; 10000 nM) [%] | cell viability (U2OS [14]; 1 nM) [%] | cell viability (U2OS [14]; 10 nM) [%] | cell viability (U2OS [14]; 100 nM) [%] | cell viability (U2OS [14]; 1000 nM) [%] | cell viability (U2OS [14]; 10000 nM) [%] | cell viability (Calu-3 [15]; 1 nM) [%] | cell viability (Calu-3 [15]; 10 nM) [%] | cell viability (Calu-3 [15]; 100 nM) [%] | cell viability (Calu-3 [15]; 1000 nM) [%] | cell viability (Calu-3 [15]; 10000 nM) [%]
Clc1ccc(CCCOCCCN2CCCCC2)cc1 [pitolisant] | > 10 | > 10 | > 10 | > 10 | > 10 | 0 | 0 | 0.3 | 0 | 0 | 95 | 94.9 | 95.6 | 93.2 | 89.4 | 99.4 | 93.6 | 96.4 | 89.7 | 89.8 | 93.8 | 91.4 | 96 | 94.6 | 81.8 | 104 | 99.7 | 100 | 97.7 | 96.8 | 90.7 | 106 | 92.3 | 90.6 | 94.8
c1ccc2c(CC3=NCCN3)cccc2c1 [naphazoline] | > 10 | > 10 | > 10 | > 10 | > 10 | 0 | 0 | 0 | 0 | 0 | 102 | 99.4 | 95.5 | 97.7 | 93.3 | 95.6 | 102 | 90.1 | 101 | 93.2 | 96.1 | 102 | 102 | 98.4 | 118 | 97 | 101 | 94.9 | 97.8 | 93.9 | 93.6 | 93.6 | 109 | 107 | 89
CCOC(=O)c1ccccc1OC(=O)CCCCCCCC(=O)Oc1ccccc1C(=O)OCC [TU-2100] | > 10 | > 10 | > 10 | > 10 | > 10 | 0 | 0 | 0 | 0 | 0 | 95.5 | 101 | 102 | 101 | 99.9 | 97.9 | 101 | 92.1 | 95.6 | 100 | 97.9 | 104 | 106 | 96.7 | 98.9 | 102 | 100 | 97.3 | 99.6 | 99.3 | 94.1 | 104 | 92.3 | 95.7 | 108
COc1cc(N)c(Cl)cc1C(=O)CCC1CCN(CCNS(C)(=O)=O)CC1 | > 10 | > 10 | > 10 | > 10 | > 10 | 0 | 0 | 0.3 | 0 | 0 | 99.7 | 101 | 100 | 93.9 | 98.3 | 95.1 | 97.3 | 95.5 | 92.3 | 92.3 | 100 | 100 | 98.2 | 89 | 95.5 | 92.6 | 101 | 94.2 | 99.2 | 92.6 | 99.6 | 92.6 | 88.3 | 99.1 | 95.9
CCN(CC)CCNC(=O)c1ccccc1I [I-BZA2] | > 10 | > 10 | > 10 | > 10 | > 10 | 0 | 0 | 0 | 0 | 0 | 99 | 99.3 | 104 | 91.5 | 110 | 89.9 | 86.5 | 98.7 | 100 | 91.4 | 105 | 94.7 | 102 | 84 | 100 | 99.1 | 101 | 95.8 | 102 | 102 | 98.8 | 102 | 105 | 105 | 115
COc1cc(C(=O)N(CC[C@H]2CCCN2C)C/C(C)=C/c2ccccc2F)cc(OC)c1OC (racemic) | > 10 | > 10 | > 10 | > 10 | > 10 | 0 | 0 | 0.1 | 0 | 0 | 102 | 102 | 103 | 99.5 | 99 | 97.4 | 98.7 | 99.7 | 103 | 93.5 | 103 | 102 | 95.8 | 104 | 86.6 | 98.6 | 96.8 | 102 | 99.2 | 97.7 | 93.5 | 108 | 103 | 104 | 94.4
